Experimental data reported in US10111847B2, “Compounds and methods for modulating vascular injury” (The Regents of the University of California, priority 2012, dated 2018).

Legend:
Format in all cases: cell-based, human
p65 subunit = assay: Nuclear translocation of p65 subunit in sv-ECs (immunofluorescence); settings: 100 nm, 30 min; TNFα 1 ng/ml 2 hrs
Protocol: Immunofluorescence for p65 (RelA): 15000 VSMCs or 30000 ECs were seeded on a 8-well chamber slide. Cells received 30 min of Maresin-1 pretreatment, followed by TNF-α for 2 hr. Cells were fixed in 2% paraformaldehyde, followed by permeabilization with ice-cold acetone (10 min) and 1% Triton X-100 (20 min). Cells were incubated overnight in a humidified chamber with anti-p65 antibody (Santa Cruz Biotechnology Inc.) followed by Alexa-fluor 488 tagged secondary antibody (Life Technologies) and were visualized under a fluorescent microscope.
ECs were grown in chamber slides and treated with vehicle or 100 nm of 7S-Maresin-1 for 30 min, followed by TNFα (1 ng/ml) for 2 hrs. Cells were fixed and subsequently stained with anti-p65 (Santa Cruz Biotechnology) and secondary antibodies (Alexa-488).
FIGS. 17A-17D. Representative images of Ctrl (A), TNFα (B), 7S-Maresin-1+TNFα. (C). (D) Mean fluorescence of nucleus and cytoplasm were quantified from all groups and the net result of the ratio of nucleus over cytoplasmic mean fluorescence is depicted in the bar graph, as a measure of relative p65 nuclear translocation. (N>=3). P≤0.05, One-way ANOVA with Dunnett's post hoc test. *: P≤0.05 compared to control, unpaired t-test. †: P≤0.05 compared to TNFα, unpaired t-test. Error bars: SEM.

VSMC [1] = assay: MTT cell viability assay; settings: 1-100 nM for 8 hours
Protocol: Cells are plated onto 24-well plates and treated with or without RvD1 or RvD2 (1, 10, and 100 nM) for 8 hours. MTT viability assay is performed per manufacturer's instructions (TOX1 assay, Sigma).
FIG. 8: Cell viability is not affected by RvD1 or RvD2. Cells were treated with or without RvD1 or RvD2 (1, 10, and 100 nM) for 8 hours.

VSMC [2] = assay: Transwell migration of VSMC to PDGF-AB; settings: 100 nM; chemotaxis to PDGF-AB 50 ng/mL, 8 hours; P<0.01
From the text: Primary cultures of human greater saphenous vein smooth muscle cells (hVSMC) are isolated from saphenous vein discarded at the time of bypass operation in an Institutional Review Board-approved protocol as described by Conte et al. “Regulation of vein graft hyperplasia by survivin, an inhibitor of apoptosis protein.” Arterioscler Thromb Vasc Biol. 2005; 25:2081-2087. VSMCs are maintained in Dulbecco's modified Eagle's medium (DMEM Low Glucose) (HyClone Laboratories Inc, Logan, Utah) containing 10% fetal bovine serum (FBS) (Invitrogen Life Technologies, Grand Island, N.Y.) and used between passages 2-5. Endothelial cells were maintained in Medium 199 supplemented with EBSS (Hyclone Laboratories, Logan, Utah, USA) and Endothelial Cell Growth Supplement. Cells between passages 3-8 were used for the experiments.
RvD. […]
FIG. 1: RvD1 and RvD2 attenuate cell adhesion, proliferation, and migration responses of human VSMC in-vitro. […] Results are shown as relative percent inhibition, expressed as a percentage of the maximal adhesion for the agonist (n=6, results are mean±SEM, **P<0.01, *P<0.05, unpaired t-test). […] Results are expressed as percentage change in migration from unstimulated control (no PDGF). […]

[3] = system: TNF-α, IL-1β, MCP-1, IL-6, and IL-1α; assay: TNF-α-stimulated inflammatory cytokine gene expression in VSMC by qRT-PCR; settings: 0.1 nM or 10 nM, greatest attenuation in IL-1β
Protocol: Cells are plated onto 6-well plates at 100% confluency in DMEM plus 10% FBS and allowed to attached overnight. Cells are then made quiescent by placing in serum-free media for 48-72 hours prior to start of experiments. Cells are treated with or without RvD1 or RvD2 at the indicated concentrations for one hour followed by co-incubation with cytokine (TNF-α 10 ng/ml) for up to 18 hours. In a separate set of experiments to examine the role of G-protein receptors, VSMCs are exposed to TNF-α and RvD2 (10 nM) as described above, in the presence or absence of pertussis toxin (PTX 100 ng/ml). Total RNA from rabbit sample or cells is isolated with PureLink RNA Mini kit (Ambion Life Technologies, Carlsbad, Calif.) with RNase-free DNase treatment according to manufacturer's protocol. One microgram of total RNA (from either VSMC or rabbit tissue) is used to generate cDNA using High Capacity cDNA Reverse Transcription Kit (Applied Biosystems, Foster City, Calif.) for subsequent RT-PCR reactions. Sybrgreen Amplified DNA is detected by incorporation SYBR Green (Qiagen, Germantown, Md.). Dissociation curve analyses are performed to confirm the specificity of the SYBR Green signal. Data is normalized to at least two reference genes. […]
FIG. 2: RvD1 and RvD2 reduce pro-inflammatory gene expression in VSMC. […] Expression of the cell adhesion molecules VCAM-1 (A) and ICAM-1 (B) was measured by qRT-PCR. […]

SMILES | nuclear translocation of p65 subunit in human sv-ECs (p65 subunit) | loss of cell viability (MTT cytotoxicity assay) (VSMC [1]) | Maximum % reduction in the cell migration assay (VSMC [2]) [%] | expression of multiple inflammatory cytokines including TNF-α, IL-1β, MCP-1, IL-6, and IL-1α [3]
CC/C=C\C/C=C\C[C@H](O)\C=C/C=C/C=C/[C@@H](O)C/C=C\CCC(=O)O [7S-Maresin-1, 7S,14R-dihydroxydocosa-4Z,8E,10Z,12Z,16Z,19Z-hexaenoic acid] | Inhibits |  |  | 
CC/C=C\C[C@H](O)/C=C/C=C\C=C\C=C\[C@@H](O)[C@@H](O)C/C=C\CCC(=O)O [RvD1, Resolvin D1] |  | did not display significant loss of cell viability | 63 | broad, significant reduction
CC/C=C\C[C@H](O)[C@H](O)/C=C/C=C/C=C\C=C\[C@@H](O)C/C=C\CCC(=O)O [RvD2, resolvin D2] |  | did not display significant loss of cell viability | 69 | broad, significant reduction
